Assay results taken from US20250163052A1, “cGAS INHIBITORS AND USES THEREOF” (Cornell University, priority 2022, published 2025).

Columns and labels:
h-cGAS = h-cGAS (Homo sapiens, UniProt Q8N884); assay: Cell-free human cGAS enzyme inhibition assay (ATP depletion, Kinase-Glo Max); type: biochemical; conditions: 3 h; for inhibition at 1 µM: read-out: h-cGAS, conc. 1 μM; for inhibition at 10 µM: read-out: h-cGAS, conc. 10 μM
m-cGAS = m-cGAS (Mus musculus, UniProt Q8C6L5); assay: Cell-free mouse cGAS enzyme inhibition assay (ATP depletion, Kinase-Glo Max); type: biochemical; conditions: 1 h; for inhibition at 1 µM: read-out: m-cGAS, conc. 1 μM; for inhibition at 10 µM: read-out: m-cGAS, conc. 10 μM
IFNB = assay: THP1-Dual cells transfected with DNA, Ifnb expression (Quantiluc); type: cell-based; conditions: Homo sapiens; for inhibition at 10 µM: THP-1, 10 μM; for inhibition at 30 µM: THP-1, 30 μM
Outline: (§1)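 Readouts after overnight incubation: Quantiluc luminescence for Ifnb, Quantiblue for nfkb (both in supernatant) and CellTiter-Glo for viability. Before the DNA stimulus (2 ug/ml, lipofectamine transfection), THP1-Dual cells received compound at several dilutions for 4 h.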

NFkB-SEAP = assay: THP1-Dual cells transfected with DNA, nfkb expression (Quantiblue); type: cell-based; conditions: Homo sapiens; for inhibition at 10 µM: THP-1, 10 μM; for inhibition at 30 µM: THP-1, 30 μM
Outline: as §1

THP1 cells = assay: THP1-Dual cells, cell viability (CellTiter-Glo); type: cell-based
Outline: as §1

Sequence of h-cGAS (Q8N884 whole entry): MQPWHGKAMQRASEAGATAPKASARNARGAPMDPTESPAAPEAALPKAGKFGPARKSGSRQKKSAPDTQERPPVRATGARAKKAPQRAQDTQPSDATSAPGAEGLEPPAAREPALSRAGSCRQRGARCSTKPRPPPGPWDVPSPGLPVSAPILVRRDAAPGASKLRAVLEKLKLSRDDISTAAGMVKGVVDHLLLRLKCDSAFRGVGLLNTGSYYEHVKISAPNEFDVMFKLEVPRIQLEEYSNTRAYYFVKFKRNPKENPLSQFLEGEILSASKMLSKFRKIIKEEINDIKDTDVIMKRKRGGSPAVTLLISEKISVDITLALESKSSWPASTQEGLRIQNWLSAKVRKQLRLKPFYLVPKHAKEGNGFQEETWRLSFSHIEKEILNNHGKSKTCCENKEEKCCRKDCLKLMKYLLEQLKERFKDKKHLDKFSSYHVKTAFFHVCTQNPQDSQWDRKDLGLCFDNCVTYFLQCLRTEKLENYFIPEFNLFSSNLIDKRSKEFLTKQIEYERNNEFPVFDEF
Sequence of m-cGAS (Q8C6L5 whole entry): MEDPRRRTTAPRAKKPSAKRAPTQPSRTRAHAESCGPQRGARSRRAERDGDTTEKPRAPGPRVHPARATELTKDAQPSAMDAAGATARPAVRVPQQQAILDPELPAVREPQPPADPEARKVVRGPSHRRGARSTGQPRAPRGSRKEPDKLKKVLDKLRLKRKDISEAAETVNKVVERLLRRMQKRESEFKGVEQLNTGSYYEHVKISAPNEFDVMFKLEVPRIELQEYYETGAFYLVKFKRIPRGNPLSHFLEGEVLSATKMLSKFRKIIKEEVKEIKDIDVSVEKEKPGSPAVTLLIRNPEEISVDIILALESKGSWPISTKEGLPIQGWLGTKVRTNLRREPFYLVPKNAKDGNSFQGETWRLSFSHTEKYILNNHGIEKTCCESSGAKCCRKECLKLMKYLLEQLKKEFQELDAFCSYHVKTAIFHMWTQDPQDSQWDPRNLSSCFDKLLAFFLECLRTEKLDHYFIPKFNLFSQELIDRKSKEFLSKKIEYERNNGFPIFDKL

inhibition at 1 µM (h-cGAS) | inhibition at 10 µM (h-cGAS) | inhibition at 1 µM (m-cGAS) | inhibition at 10 µM (m-cGAS) | SMILES | inhibition at 10 µM (IFNB) | inhibition at 30 µM (IFNB) | inhibition at 10 µM (NFkB-SEAP) | inhibition at 30 µM (NFkB-SEAP) | Cell viability 10 μM (THP1 cells) | Cell viability 30 μM (THP1 cells)
0 to 24% | 50 to 74% | 25 to 49% | 75 to 100% | NCC(=O)N1CCc2c(sc3c(Cl)c(Cl)cc(-c4cncs4)c23)C1 [Compound 87] | 75 to 100% | 75 to 100% | 50 to 74% | 75 to 100% | − (Cell viability <24%, in THP1 cells is expressed as “−”) | − (Cell viability <24%, in THP1 cells is expressed as “−”)
0 to 24% | 50 to 74% | 0 to 24% | 25 to 49% | NCC(=O)N1CCc2c(sc3c(Cl)c(Cl)cc(-c4ncccn4)c23)C1 [Compound 89] | < 24% | 50 to 74% | < 24% | 50 to 74% | +++ (+, ++, and +++ mean the compound respectively shows 25-49%; 50-74%; or 75-100% viability to cells) | ++ (+, ++, and +++ mean the compound respectively shows 25-49%; 50-74%; or 75-100% viability to cells)
0 to 24% | 50 to 74% | 25 to 49% | 50 to 74% | NCC(=O)N1CCc2c(sc3c(Cl)c(Cl)cc(-c4cnccn4)c23)C1 [Compound 90] | 25 to 49% | 50 to 74% | 25 to 49% | 75 to 100% | +++ (+, ++, and +++ mean the compound respectively shows 25-49%; 50-74%; or 75-100% viability to cells) | − (Cell viability <24%, in THP1 cells is expressed as “−”)

More lines, now with the values behind:

SMILES | inhibition at 1 µM (h-cGAS) | inhibition at 10 µM (h-cGAS) | inhibition at 1 µM (m-cGAS) | inhibition at 10 µM (m-cGAS) | inhibition at 10 µM (IFNB) | inhibition at 30 µM (IFNB) | inhibition at 10 µM (NFkB-SEAP) | inhibition at 30 µM (NFkB-SEAP) | Cell viability 10 μM (THP1 cells) | Cell viability 30 μM (THP1 cells)
NCC(=O)N1CCc2c(sc3c(Cl)c(Cl)cc(-c4ccsc4)c23)C1 [Compound 82] | 0 to 24% | 50 to 74% | 0 to 24% | 50 to 74% | 50 to 74% | 75 to 100% | 75 to 100% | 75 to 100% | +++ (+, ++, and +++ mean the compound respectively shows 25-49%; 50-74%; or 75-100% viability to cells) | + (+, ++, and +++ mean the compound respectively shows 25-49%; 50-74%; or 75-100% viability to cells)
Cn1ccc(-c2cc(Cl)c(Cl)c3sc4c(c23)CCN(C(=O)CN)C4)n1 [Compound 83] | 25 to 49% | 50 to 74% | 25 to 49% | 75 to 100% | 50 to 74% | 75 to 100% | 75 to 100% | 75 to 100% | ++ (+, ++, and +++ mean the compound respectively shows 25-49%; 50-74%; or 75-100% viability to cells) | − (Cell viability <24%, in THP1 cells is expressed as “−”)
NCC(=O)N1CCc2c(sc3c(Cl)c(Cl)cc(-c4nccs4)c23)C1 [Compound 84] | 25 to 49% | 75 to 100% | 0 to 24% | 50 to 74% | 25 to 49% | 75 to 100% | < 24% | 50 to 74% | +++ (+, ++, and +++ mean the compound respectively shows 25-49%; 50-74%; or 75-100% viability to cells) | − (Cell viability <24%, in THP1 cells is expressed as “−”)
NCC(=O)N1CCc2c(sc3c(Cl)c(Cl)cc(-c4ccccn4)c23)C1 [Compound 86] | 0 to 24% | 50 to 74% | 0 to 24% | 25 to 49% | < 24% | 75 to 100% | < 24% | 50 to 74% | +++ (+, ++, and +++ mean the compound respectively shows 25-49%; 50-74%; or 75-100% viability to cells) | − (Cell viability <24%, in THP1 cells is expressed as “−”)
